Experimental data: patent US11655241B2, “Heterocyclic compound and use thereof” (Takeda Pharmaceutical Company Limited, priority 2018, dated 2023)

biological target: T1, human orexin type 2 receptor (Homo sapiens, UniProt O43614); test: Measurement of orexin type 2 receptor agonist activity (calcium fluorescence, Fluo-4 AM, FDSS); format: cell-based; conditions: compound at 3 μM; CHO cells forcibly expressing human OX2 receptor; DMSO = 0%, orexin A (human) 10 nM = 100%
T1 construct: expressed in transfected cells
T1 sequence (O43614 1-444): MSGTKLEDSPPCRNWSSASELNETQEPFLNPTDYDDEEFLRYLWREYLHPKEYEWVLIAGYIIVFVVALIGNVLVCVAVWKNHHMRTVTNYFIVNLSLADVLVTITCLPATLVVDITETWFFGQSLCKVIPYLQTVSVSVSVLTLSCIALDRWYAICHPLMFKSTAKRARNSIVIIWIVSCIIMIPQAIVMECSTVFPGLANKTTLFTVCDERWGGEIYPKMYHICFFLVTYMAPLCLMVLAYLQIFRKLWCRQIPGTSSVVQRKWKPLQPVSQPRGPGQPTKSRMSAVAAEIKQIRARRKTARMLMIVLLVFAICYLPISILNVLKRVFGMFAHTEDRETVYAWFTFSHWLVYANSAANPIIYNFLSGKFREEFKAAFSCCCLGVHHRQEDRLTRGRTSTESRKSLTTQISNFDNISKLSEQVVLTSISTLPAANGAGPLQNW
Description: Experimental Example 1: Obtainment of Cell Stably Expressing Human Orexin Type 2 Receptor (hOX2R)
To obtain a cell clone stably expressing human orexin type 2 receptor, human orexin type 2 receptor cDNA was inserted into pcDNA3.1(+) plasmid vector (Invitrogen), and a plasmid DNA for expression of human orexin type 2 receptor (pcDNA3.1(+)/hOX2R) was cloned. The plasmid DNA was introduced into CHO-dhfr cell by an electroporation method, and human orexin type 2 receptor expressing clone cells were obtained by limiting dilution method by using G418 drug resistance as a selection marker.
Experimental Example 2: Measurement of Orexin Type 2 Receptor Agonist Activity
CHO cells forcibly expressing human OX2 receptor were seeded in each well of 384 well black transparent bottom plate (BD Falcon) at 7,500 cells/well, and cultured for one day in a 5% CO2 incubator at 37° C. After removal of the medium in the cell plate, assay buffer A containing a calcium indicator (HBSS (Thermo Fisher Scientific), 20 mM HEPES (Thermo Fisher Scientific), 0.1% BSA (Wako Pure Chemical Industries, Ltd. or Sigma-Aldrich), 2.5 μg/mL Fluo-4 AM (DOJINDO Chemical), 0.08% Pluronic F127 (DOJINDO Chemical), 1.25 mM probenecid (DOJINDO Chemical)) was added at 30 μL/well. The plate was stood for 30 min in a 5% CO2 incubator at 37° C., and further stood at room temperature for 30 min. A test compound prepared by diluting with assay buffer B (HBSS, 20 mM HEPES, 0.1% BSA) was added at 10 μL/well, and the fluorescence value was measured by FDSSμCELL (Hamamatsu Photonics K.K.) every one sec for 1 min, and thereafter every two sec for 1 min 40 sec. The activity (%) of the test compound was calculated assuming that variation in the fluorescence value when DMSO was added instead of the test compound was 0%, and variation in the fluorescence value when orexin A (human) (PEPTIDE INSTITUTE, INC.) was added at the final concentration of 10 nM was 100%. The activity of each compound at the concentration of 3 μM was shown below.

OX2R agonist activity (3 μM, %) | Compound
93% | COC1(C(=O)N[C@H]2CCN(C(=O)C3CCC3)[C@H]2Cc2cccc(-c3cccc(F)c3)c2)CC1 (relative stereo) [Example 11, N-{cis-1-(cyclobutanecarbonyl)-2-[(3′-fluoro[1,1′-biphenyl]-3-yl)methyl]pyrrolidin-3-yl}-1-methoxycyclopropane-1-carboxamide]
103% | CN(C)C(=O)C(=O)N[C@H]1CCN(C(=O)C2CCC2)[C@H]1Cc1cccc(-c2cccc(F)c2)c1 [Example 32, N^~2^~-{(2S,3S)-1-(cyclobutanecarbonyl)-2-[(3′-fluoro[1,1′-biphenyl]-3-yl)methyl]pyrrolidin-3-yl}-N^~1^~,N^~1^~- dimethylethanediamide]
104% | O=C(N[C@H]1CCN(C(=O)N2CCC2)[C@H]1Cc1cccc(-c2cccc(F)c2)c1)[C@@H]1CCCO1 [Example 31, (2S)-N-{(2S,3S)-1-(azetidine-1-carbonyl)-2-[(3′-fluoro[1,1′-biphenyl]-3-yl)methyl]pyrrolidin-3-yl}oxolane-2-carboxamide]
67% | CC(C)(CO)C(=O)N1CC[C@H](NC(=O)[C@@H]2CCCO2)[C@@H]1Cc1cccc(-c2cccc(F)c2)c1 [Example 46, (2S)-N-[(2S,3S)-2-[(3′-fluoro[1,1′-biphenyl]-3-yl)methyl]-1-(3-hydroxy-2,2-dimethylpropanoyl)pyrrolidin-3-yl]oxolane-2-carboxamide]
101% | CN(C)C(=O)C(=O)N[C@H]1CCN(C(=O)C2(O)CCC2)[C@H]1Cc1cccc(-c2cccc(F)c2)c1 [Example 37, N^~2^~-[(2S,3S)-2-[(3′-fluoro[1,1′-biphenyl]-3-yl)methyl]-1-(1-hydroxycyclobutane-1-carbonyl)pyrrolidin-3-yl]-N^~1^~,N^~1^~- dimethylethanediamide]
60% | O=C(CO)N[C@H]1CCN(C(=O)C2CCC2)[C@H]1Cc1cccc(-c2cccc(F)c2)c1 (relative stereo) [Example 6, N-{cis-1-(cyclobutanecarbonyl)-2-[(3′-fluoro[1,1′-biphenyl]-3-yl)methyl]pyrrolidin-3-yl}-2-hydroxyacetamide]
66% | CC(F)(F)C(=O)N[C@H]1CCN(C(=O)C2CCC2)[C@H]1Cc1cccc(-c2cccc(F)c2)c1 (relative stereo) [Example 8, N-{cis-1-(cyclobutanecarbonyl)-2-[(3′-fluoro [1,1′-biphenyl]-3-yl)methyl]pyrrolidin-3-yl}-2,2-difluoropropanamide]
101% | CN(C)C(=O)C(=O)N[C@H]1CCN(C(=O)N2CCC2)[C@H]1Cc1cccc(-c2cccc(F)c2)c1 [Example 30, N^~2^~-{(2S,3S)-1-(azetidine-1-carbonyl)-2-[(3′-fluoro[1,1′-biphenyl]-3-yl)methyl]pyrrolidin-3-yl}-N^~1^~,N^~1^~-dimethylethanediamide]
80% | CN(C)C(=O)C(=O)NC1CCCN(C(=O)C2CCC2)C1Cc1cccc(-c2cccc(F)c2)c1 (stereo not drawn) [Example 29, N^~2^~-{cis-1-(cyclobutanecarbonyl)-2-[(3′-fluoro[1,1′-biphenyl]-3-yl)methyl]piperidin-3-yl}-N^~1^~,N^~1^~- dimethylethanediamide]
79% | O=C(C1CCC1)N1CC[C@H](NC(=O)C2(F)CCC2)[C@@H]1Cc1cccc(-c2cccc(F)c2)c1 (relative stereo) [Example 10, N-{cis-1-(cyclobutanecarbonyl)-2-[(3′-fluoro[1,1′-biphenyl]-3-yl)methyl]pyrrolidin-3-yl}-1-fluorocyclobutane-1-carboxamide]
79% | CN(C)C(=O)C(=O)N[C@H]1CCN(C(=O)C(C)(C)CO)[C@H]1Cc1cccc(-c2cccc(F)c2)c1 [Example 40, N^~2^~-[(2S,3S)-2-[(3′-fluoro[1,1′-biphenyl]-3-yl)methyl]-1-(3-hydroxy-2,2-dimethylpropanoyl)pyrrolidin-3-yl]-N^~1^~,N^~1^~-dimethylethanediamide]
82% | CN(C)C(=O)C(=O)N[C@H]1CCN(C(=O)C2CCC2)[C@H]1Cc1csc(-c2cccc(F)c2)n1 [Example 20, N^~2^~-[(2S,3S)-1-(cyclobutanecarbonyl)-2-{[2-(3-fluorophenyl)-1,3-thiazol-4-yl]methyl}pyrrolidin-3-yl]-N^~1,N^~1^~- dimethylethanediamide]

More lines, now with the values behind:

Compound | OX2R agonist activity (3 μM, %)
COC1(C(=O)N[C@H]2CCN(C(=O)C3CCC3)[C@H]2Cc2csc(-c3cccc(F)c3)n2)CC1 [Example 27, N-[(2S,3S)-1-(cyclobutanecarbonyl)-2-{[2-(3-fluorophenyl)-1,3-thiazol-4-yl]methyl}pyrrolidin-3-yl]-1-methoxycyclopropane-1-carboxamide] | 60%
CN(C)C(=O)C(=O)N[C@H]1CCN(C(=O)N2CCC2)[C@H]1Cc1csc(-c2cccc(F)c2)n1 [Example 19, N^~2^~-[(2S,3S)-1-(azetidine-1-carbonyl)-2-{[2-(3-fluorophenyl)-1,3-thiazol-4-yl]methyl}pyrrolidin-3-yl]-N^~1,N^~1^~- dimethylethanediamide] | 89%
O=C(N[C@H]1CCN(C(=O)C2CCC2)[C@H]1Cc1cccc(-c2cccc(F)c2)c1)[C@@H]1CCCO1 [Example 33, (2S)-N-{(2S,3S)-1-(cyclobutanecarbonyl)-2-[(3′-fluoro[1,1′-biphenyl]-3-yl)methyl]pyrrolidin-3-yl}oxolane-2-carboxamide] | 97%
O=C(N[C@H]1CCN(C(=O)C2CCC2)[C@H]1Cc1csc(-c2cccc(F)c2)n1)[C@@H]1CCCO1 [Example 24, (2S)-N-[(2S,3S)-1-(cyclobutanecarbonyl)-2-{[2-(3-fluorophenyl)-1,3-thiazol-4-yl]methyl}pyrrolidin-3-yl]oxolane-2-carboxamide] | 65%
COC1(C(=O)N[C@H]2CCN(C(=O)N3CCC3)[C@H]2Cc2cccc(-c3cccc(F)c3)n2)CC1 [Example 25, N-[(2S,3S)-1-(azetidine-1-carbonyl)-2-([6-(3-fluorophenyl)pyridin-2-yl]methyl]pyrrolidin-3-yl]-1-methoxycyclopropane-1-carboxamide] | 54%
O=C(N[C@H]1CCN(C(=O)C2CCC2)[C@H]1Cc1cccc(-c2cccc(F)c2)c1)C1CCCO1 (relative stereo) [Example 5, N-{cis-1-(cyclobutanecarbonyl)-2-[(3′-fluoro[1,1′-biphenyl]-3-yl)methyl]pyrrolidin-3-yl}oxolane-2-carboxamide] | 92%
O=C(N[C@H]1CCN(C(=O)N2CCC2)[C@H]1Cc1csc(-c2cccc(F)c2)n1)[C@@H]1CCCO1 [Example 23, (2S)-N-[(2S,3S)-1-(azetidine-1-carbonyl)-2-{[2-(3-fluorophenyl)-1,3-thiazol-4-yl]methyl}pyrrolidin-3-yl]oxolane-2-carboxamide] | 76%
O=C(N[C@H]1CCN(C(=O)N2CCC2)[C@H]1Cc1cccc(-c2cccc(F)c2)n1)[C@@H]1CCCO1 [Example 21, (2S)-N-[(2S,3S)-1-(azetidine-1-carbonyl)-2-{[6-(3-fluorophenyl)pyridin-2-yl]methyl]pyrrolidin-3-yl]oxolane-2-carboxamide] | 59%
COC1(C(=O)N[C@H]2CCN(C(=O)N3CCC3)[C@H]2Cc2csc(-c3cccc(F)c3)n2)CC1 [Example 26, N-[(2S,3S)-1-(azetidine-1-carbonyl)-2-{[2-(3-fluorophenyl)-1,3-thiazol-4-yl]methyl}pyrrolidin-3-yl]-1-methoxycyclopropane-1-carboxamide] | 67%
O=C(NC1CCN(C(=O)C2CCC2)C1Cc1cccc(-c2cccc(F)c2)c1)[C@@H]1CCCO1 (stereo in doubt) [Example 16, (2S)-N-{cis-1-(cyclobutanecarbonyl)-2-[(3′-fluoro[1,1′-biphenyl]-3-yl)methyl]pyrrolidin-3-yl}oxolane-2-carboxamide] | 90%
